Reference: patent US20110263454A1, “Methods of Identifying Functional Characteristics of Promoters, Transcription Modifying Proteins and Transcription Modulating Agents” (Salk Institute for Biological Studies, priority 2008, published 2011)

Assays:
[1] = tested on: SREBP1c promoter; experiment: NHR-promoter luciferase screen, SREBP1c promoter; assay type: cell-based, mouse; details: for Luc. act., normalized to lacZ / Normalized Luc. act., normalized to control: SREBP1c promoter, HR component without or with ligand; for mSREBP1-c promoter reporter activity: transcription factor +/- ligand, control = 1.00
Summary of the method: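 CV-1 cells co-transfected with 50 ng NHR (homodimer or NHR/RXR heterodimer), 100 ng promoter-luciferase and 50 ng LacZ. Luciferase read at 48 h, normalised to LacZ and to a no-NHR/no-ligand control.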

[2] = tested on: FGF1D promoter; experiment: FGF family promoter luciferase reporter screen by NHRs, FGF1D; assay type: cell-based, human; details: FIG. 43, in words
Excerpt: (§1) Screening for FGF regulation by NHRs. The methods described herein provide a straightforward, high throughput, sensitive and quantitative strategy to identify therapeutic agonists and antagonists that can predictably modulate FGF and FGFR expression for therapeutic benefit. Promoter constructs were designed and screened for all 22 members of the FGF-family for novel regulation by the NHRs. Of particular interest is the strong and specific transcriptional regulation of FGF1A, one of the alternative splice variants of FGF1, by PPARγ (FIG. 43). The FGF 1 gene is regulated by at least three (A, B and D) different promoters. Alternative splicing of these promoters to the three exons of the FGF1 gene results in identical but differentially expressed FGF1 polypeptides (FIG. 44). FGF1A is highly expressed in heart, kidney and adipose, FGF1B is highly expressed in brain and FGF1D is highly expressed in liver.

[3] = tested on: FGF1A promoter; experiment: FGF family promoter luciferase reporter screen by NHRs, FGF1A; assay type: cell-based, human; details: FIG. 43, in words
Excerpt: as §1
FGF1A promoter analysis. To gain more insight into the regulation of the FGF1A promoter by PPARγ, the putative PPRE was localized. […] The evolutionary conservation of FGF1A was determined and found to be highly conserved in a wide range of mammals (bovine, canine, horse, chimpanzee, human, orangutan, rat, mouse, and opossum). […] In addition to a strong conservation of the PPRE in this promoter, several other highly conserved elements were detected (e.g. SP1, HMTB, EVI1 and E-box).

[4] = tested on: hMDR1 promoter; experiment: NHR-promoter luciferase screen, hMDR1 promoter; assay type: cell-based, human; details: for Luc. act., normalized to lacZ / Normalized Luc. act., normalized to control: MDR1 promoter, HR/ligand component; for hMDR1 promoter reporter activity: transcription factor +/- ligand, control = 1.00
Summary of the method: (§2)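 CV-1 cells were co-transfected with 50 ng NHR (homodimer or NHR/RXR heterodimer), 100 ng promoter-luciferase construct and 50 ng LacZ. Luciferase was normalized to LacZ and to a no-NHR/no-ligand control.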

[5] = tested on: hMyoD promoter; experiment: NHR-promoter luciferase screen, hMyoD promoter; assay type: cell-based, human; details: for Luc. act., normalized to lacZ / Normalized Luc. act., normalized to control: MyoD promoter reporter, co-transfected HR, without or with its ligand; for Normalized Luc. act., normalized to control: relative to control; for luciferase activity normalized to lacZ activity and to a control, hMyoD: hMyoD promoter-luciferase, CV-1 cells, NHR +/- ligand, control = 1.00
Summary of the method: as §2

| Substance | Luc. act., normalized to lacZ [1] | Normalized Luc. act., normalized to control [1] | mSREBP1-c promoter reporter activity [1] | activation of FGF1D promoter, luciferase reporter assay [2] | activation of FGF1A promoter, luciferase reporter assay [3] | Luc. act., normalized to lacZ [4] | Normalized Luc. act., normalized to control [4] | hMDR1 promoter reporter activity [4] | Luc. act., normalized to lacZ [5] | Normalized Luc. act., normalized to control [5] | luciferase activity normalized to lacZ activity and to a control, hMyoD [5] | regulation of the SREBP1c promoter ([1]; FIG. 2b, in words) |
| --- | --- | --- | --- | --- | --- | --- | --- | --- | --- | --- | --- | --- |
| PPARg: Peroxisome proliferator activated receptor γ (NR1C3), cDNA driver | 795.8 | 2.5 | 2.47 | moderate activation | strong activation | 0.3 | 0.8 | 0.83 | 74.5 | 1.2 | 1.18 | – |
| LXRa: Liver X Receptor α (NR1H3), cDNA driver | 5951.9 | 18.5 | 18.48 | moderate activation | – | 0.2 | 0.5 | 0.51 | 60.1 | 0.9 | 0.95 | specific and strong activation |
